These results are taken from ChEMBL document CHEMBL4229346, “New insights in the structure-activity relationships of 2-phenylamino-substituted benzothiopyrano[4,3-d]pyrimidines as kinase inhibitors” (Eur J Med Chem, 2018).

What is called GI50 is the concentration giving 50% growth inhibition. By inhibition is commonly meant how much of the control response was suppressed. As usually defined, the IC50 is the point on the concentration scale where inhibition reaches its midpoint.

In one series the test system is A-431. Put plainly: Growth inhibition of human A431 cells after 72 hrs by trypan blue assay. Conditions: A-431, 72 h. The format is functional.
The next series concerns HeLa. Description: Growth inhibition of human HeLa cells after 72 hrs by trypan blue assay. Format: functional.
Series [1] in a line: Growth inhibition of HUVEC after 72 hrs by trypan blue assay. Format: cell-based. As to conditions: human, HUVEC cells.
The subject of the next series is MSTO-211H. Put plainly: Growth inhibition of human MSTO-211H cells after 72 hrs by trypan blue assay. The format is functional.
The target in series [2] is Proto-oncogene tyrosine-protein kinase Src (Homo sapiens) (UniProt P12931). Description: Inhibition of recombinant human Src at 10^-5 M using Ulight-Poly GAT[EAY(1:1:1)]n as substrate measured after 10 mins by LANCE assay relative to control. (TR-FRET usually uses a lanthanide donor and a delayed reading to cut background.)
For series [3], the target named is Platelet-derived growth factor receptor beta (Homo sapiens) (UniProt P09619). Description: Inhibition of recombinant human PDGFRbeta at 10^-5 M using Ulight-Poly GAT[EAY(1:1:1)]n as substrate measured after 30 mins by LANCE assay relative to control.
Series [4] has as its target Epidermal growth factor receptor (Homo sapiens) (UniProt P00533). Description: Inhibition of recombinant human EGFR at 10^-5 M using Ulight-CAGAGAIETDKEYYTVKD as substrate measured after 15 mins by LANCE assay relative to control.
The target of series [5] is T1, Aurora kinase A (Homo sapiens) (UniProt O14965).
T1 sequence (whole entry): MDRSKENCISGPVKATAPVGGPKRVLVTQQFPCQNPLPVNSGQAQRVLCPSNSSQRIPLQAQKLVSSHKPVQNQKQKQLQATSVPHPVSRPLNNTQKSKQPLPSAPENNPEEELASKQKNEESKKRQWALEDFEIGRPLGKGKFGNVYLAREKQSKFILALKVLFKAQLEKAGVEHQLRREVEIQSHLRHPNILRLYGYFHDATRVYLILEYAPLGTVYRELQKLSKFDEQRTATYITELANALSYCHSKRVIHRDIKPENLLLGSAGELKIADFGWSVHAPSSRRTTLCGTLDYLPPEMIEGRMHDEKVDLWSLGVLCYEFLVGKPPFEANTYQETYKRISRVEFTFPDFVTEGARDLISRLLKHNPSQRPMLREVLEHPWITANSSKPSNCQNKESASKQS
Description: Inhibition of recombinant human Aurora-A at 10^-5 M using Ulight-RRRSLLE as substrate measured after 15 mins by LANCE assay relative to control.

Series [6] has as its target RAF proto-oncogene serine/threonine-protein kinase (Homo sapiens) (UniProt P04049). Put plainly: Inhibition of recombinant human RAF1 at 10^-5 M relative to control.
Series [7] deals with Cyclin-dependent kinase 1/cyclin B1 (Homo sapiens) (UniProt P06493+P14635). Put plainly: Inhibition of recombinant human CDK1/Cyclin B at 10^-5 M using Ulight-CFFKNIVTPRTPPPSQGK-amide as substrate measured after 15 mins by LANCE assay relative to control. The format is protein-complex assay.
Series [8] deals with Vascular endothelial growth factor receptor 2 (Homo sapiens, UniProt P35968). Put plainly: Inhibition of recombinant human His-tagged KDR cytoplasmic domain (789 to 1356 residues) expressed in baculovirus expression system using Z'-LYTE-Tyr1 as substrate measured after 1 hr by Z'-LYTE assay.
Chain of Vascular endothelial growth factor receptor 2 (P35968 whole entry, the tested form may be a part): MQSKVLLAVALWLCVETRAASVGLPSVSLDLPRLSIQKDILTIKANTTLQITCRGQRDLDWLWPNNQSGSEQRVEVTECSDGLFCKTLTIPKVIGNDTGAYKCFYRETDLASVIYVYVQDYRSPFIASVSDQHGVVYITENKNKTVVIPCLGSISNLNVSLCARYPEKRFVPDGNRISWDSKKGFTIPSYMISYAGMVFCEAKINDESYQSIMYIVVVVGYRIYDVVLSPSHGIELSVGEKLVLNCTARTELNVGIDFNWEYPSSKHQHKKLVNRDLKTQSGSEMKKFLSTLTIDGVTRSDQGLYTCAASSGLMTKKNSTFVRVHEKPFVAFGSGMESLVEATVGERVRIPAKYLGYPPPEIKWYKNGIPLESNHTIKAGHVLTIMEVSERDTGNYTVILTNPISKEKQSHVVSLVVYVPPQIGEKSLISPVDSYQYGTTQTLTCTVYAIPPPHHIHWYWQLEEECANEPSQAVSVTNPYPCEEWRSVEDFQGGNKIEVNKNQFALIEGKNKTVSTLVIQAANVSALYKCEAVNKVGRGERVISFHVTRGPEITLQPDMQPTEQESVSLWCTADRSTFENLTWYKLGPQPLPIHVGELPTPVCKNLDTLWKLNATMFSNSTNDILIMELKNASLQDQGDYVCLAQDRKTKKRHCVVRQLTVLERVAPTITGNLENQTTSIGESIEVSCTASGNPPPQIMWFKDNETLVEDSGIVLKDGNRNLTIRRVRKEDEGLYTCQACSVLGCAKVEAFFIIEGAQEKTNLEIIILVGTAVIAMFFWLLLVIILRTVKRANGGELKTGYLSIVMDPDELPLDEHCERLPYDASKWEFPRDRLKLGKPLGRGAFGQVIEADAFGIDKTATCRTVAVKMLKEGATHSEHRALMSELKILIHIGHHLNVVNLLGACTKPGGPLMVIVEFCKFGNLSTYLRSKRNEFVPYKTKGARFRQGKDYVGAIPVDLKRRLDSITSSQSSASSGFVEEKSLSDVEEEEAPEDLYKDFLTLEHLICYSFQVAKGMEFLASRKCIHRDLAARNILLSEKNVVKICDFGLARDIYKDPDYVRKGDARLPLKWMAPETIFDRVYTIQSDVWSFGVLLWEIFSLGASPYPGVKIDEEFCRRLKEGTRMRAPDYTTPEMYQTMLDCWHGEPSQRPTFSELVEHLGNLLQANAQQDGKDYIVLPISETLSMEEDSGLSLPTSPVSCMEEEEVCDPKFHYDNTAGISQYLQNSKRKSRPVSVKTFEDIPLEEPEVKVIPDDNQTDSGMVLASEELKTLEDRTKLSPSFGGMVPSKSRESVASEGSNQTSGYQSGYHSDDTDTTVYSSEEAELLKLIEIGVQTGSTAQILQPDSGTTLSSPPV

Chain of Cyclin-dependent kinase 1/cyclin B1 (Homo sapiens) (P06493 whole entry, looked up, the tested form may be a part): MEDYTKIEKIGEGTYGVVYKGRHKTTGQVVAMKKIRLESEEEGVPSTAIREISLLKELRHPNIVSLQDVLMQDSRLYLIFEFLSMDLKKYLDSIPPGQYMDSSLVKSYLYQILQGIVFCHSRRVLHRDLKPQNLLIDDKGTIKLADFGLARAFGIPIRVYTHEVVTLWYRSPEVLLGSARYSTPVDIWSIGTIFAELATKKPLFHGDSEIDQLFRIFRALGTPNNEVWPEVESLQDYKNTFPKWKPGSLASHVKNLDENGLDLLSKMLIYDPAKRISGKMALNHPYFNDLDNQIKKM
Chain of Cyclin-dependent kinase 1/cyclin B1 (Homo sapiens) (P14635 whole entry, looked up, the tested form may be a part): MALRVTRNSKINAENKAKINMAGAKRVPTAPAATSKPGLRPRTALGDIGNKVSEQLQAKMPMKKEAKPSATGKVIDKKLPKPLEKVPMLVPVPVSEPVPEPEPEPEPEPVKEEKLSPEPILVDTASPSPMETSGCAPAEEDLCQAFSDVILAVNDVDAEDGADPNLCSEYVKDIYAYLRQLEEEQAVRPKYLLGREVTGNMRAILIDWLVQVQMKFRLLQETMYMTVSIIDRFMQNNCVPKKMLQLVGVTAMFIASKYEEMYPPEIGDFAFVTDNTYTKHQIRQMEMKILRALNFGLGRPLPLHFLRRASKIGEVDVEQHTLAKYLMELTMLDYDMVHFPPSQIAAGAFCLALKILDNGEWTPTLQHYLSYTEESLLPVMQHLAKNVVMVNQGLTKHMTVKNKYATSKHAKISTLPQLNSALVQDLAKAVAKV
Chain of Epidermal growth factor receptor (Homo sapiens) (P00533 whole entry): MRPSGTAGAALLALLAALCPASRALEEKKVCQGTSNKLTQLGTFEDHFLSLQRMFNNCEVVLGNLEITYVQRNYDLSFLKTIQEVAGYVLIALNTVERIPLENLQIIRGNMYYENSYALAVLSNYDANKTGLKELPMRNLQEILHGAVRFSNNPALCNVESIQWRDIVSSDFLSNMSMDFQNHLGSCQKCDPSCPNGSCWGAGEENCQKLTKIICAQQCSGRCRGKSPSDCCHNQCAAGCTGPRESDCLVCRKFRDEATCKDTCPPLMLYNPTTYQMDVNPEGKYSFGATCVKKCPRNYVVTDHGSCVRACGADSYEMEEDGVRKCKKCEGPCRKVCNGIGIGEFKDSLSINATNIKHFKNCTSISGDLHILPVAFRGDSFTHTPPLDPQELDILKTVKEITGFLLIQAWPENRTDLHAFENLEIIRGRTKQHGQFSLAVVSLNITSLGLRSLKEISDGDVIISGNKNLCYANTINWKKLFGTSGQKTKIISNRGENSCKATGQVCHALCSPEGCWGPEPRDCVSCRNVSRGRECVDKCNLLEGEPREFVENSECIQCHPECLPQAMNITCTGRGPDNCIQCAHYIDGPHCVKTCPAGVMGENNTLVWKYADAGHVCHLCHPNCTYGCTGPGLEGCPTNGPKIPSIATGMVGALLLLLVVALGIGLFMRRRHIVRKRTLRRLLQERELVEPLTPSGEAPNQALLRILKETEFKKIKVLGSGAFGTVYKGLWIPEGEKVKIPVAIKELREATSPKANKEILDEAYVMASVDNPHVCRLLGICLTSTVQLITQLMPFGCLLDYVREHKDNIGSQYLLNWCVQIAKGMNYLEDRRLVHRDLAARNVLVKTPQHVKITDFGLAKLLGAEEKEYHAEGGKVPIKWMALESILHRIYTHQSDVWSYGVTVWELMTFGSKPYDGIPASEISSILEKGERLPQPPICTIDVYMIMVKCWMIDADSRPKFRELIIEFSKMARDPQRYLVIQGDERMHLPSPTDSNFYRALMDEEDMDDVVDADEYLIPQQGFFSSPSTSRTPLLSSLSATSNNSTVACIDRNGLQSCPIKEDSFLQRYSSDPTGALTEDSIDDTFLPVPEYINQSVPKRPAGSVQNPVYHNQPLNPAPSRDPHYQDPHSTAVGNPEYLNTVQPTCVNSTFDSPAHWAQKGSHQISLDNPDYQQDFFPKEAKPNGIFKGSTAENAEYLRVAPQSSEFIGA
Chain of Proto-oncogene tyrosine-protein kinase Src (Homo sapiens) (P12931 2-536 limits assumed): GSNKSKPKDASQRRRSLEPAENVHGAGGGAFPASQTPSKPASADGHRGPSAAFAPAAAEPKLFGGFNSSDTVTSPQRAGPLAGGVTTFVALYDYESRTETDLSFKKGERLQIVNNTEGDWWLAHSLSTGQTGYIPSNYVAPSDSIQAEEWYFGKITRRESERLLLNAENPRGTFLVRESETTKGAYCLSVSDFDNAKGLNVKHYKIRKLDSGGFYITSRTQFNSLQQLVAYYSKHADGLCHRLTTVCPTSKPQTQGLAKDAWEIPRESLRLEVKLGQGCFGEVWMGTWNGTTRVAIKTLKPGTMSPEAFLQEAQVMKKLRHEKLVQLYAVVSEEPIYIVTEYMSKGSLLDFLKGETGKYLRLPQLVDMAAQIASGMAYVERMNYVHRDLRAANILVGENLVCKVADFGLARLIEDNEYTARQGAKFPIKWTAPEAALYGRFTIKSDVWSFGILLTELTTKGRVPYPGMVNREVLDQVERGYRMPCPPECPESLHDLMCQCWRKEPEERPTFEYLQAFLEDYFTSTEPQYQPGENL
Chain of RAF proto-oncogene serine/threonine-protein kinase (Homo sapiens) (P04049 whole entry): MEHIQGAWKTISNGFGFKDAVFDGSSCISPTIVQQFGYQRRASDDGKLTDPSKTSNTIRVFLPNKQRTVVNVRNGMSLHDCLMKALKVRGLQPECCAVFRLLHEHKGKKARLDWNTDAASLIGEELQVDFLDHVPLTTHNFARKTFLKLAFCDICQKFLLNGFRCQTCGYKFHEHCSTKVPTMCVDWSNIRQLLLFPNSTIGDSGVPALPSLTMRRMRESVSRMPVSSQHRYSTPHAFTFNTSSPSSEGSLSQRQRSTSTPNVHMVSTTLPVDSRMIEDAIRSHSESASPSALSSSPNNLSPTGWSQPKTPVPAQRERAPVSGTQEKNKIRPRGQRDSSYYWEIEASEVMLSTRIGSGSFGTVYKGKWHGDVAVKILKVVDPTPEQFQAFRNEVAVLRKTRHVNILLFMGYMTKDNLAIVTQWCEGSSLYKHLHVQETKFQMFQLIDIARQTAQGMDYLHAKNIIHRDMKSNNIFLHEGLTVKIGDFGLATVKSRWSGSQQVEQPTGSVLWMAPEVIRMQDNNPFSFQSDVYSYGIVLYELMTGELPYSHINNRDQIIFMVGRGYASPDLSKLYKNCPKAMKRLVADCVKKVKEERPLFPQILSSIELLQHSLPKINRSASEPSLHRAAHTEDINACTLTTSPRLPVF

In the case of `Clc1cccc(Nc2ncc3c(n2)-c2ccccc2SC3)c1`, the GI50 is 10.4 µM in the series on A-431, over 20 µM in the series with HeLa and 6.1 µM in the series on MSTO-211H. This compound also showed a GI50 at 72 h in series [1] of 7.13 µM.

On to `COc1ccc2c(c1)SCc1cnc(Nc3cccc(F)c3)nc1-2`, for which the 50% growth inhibitory concentration (GI50) in the series on A-431 turned out to be 15.5 µM; in the series with HeLa, 10.3 µM; in the series on MSTO-211H, 13 µM. In [1], halving of growth (GI50 at 72 h) required 11.5 µM.

Take `Cc1cc(C)c(/C=C2\C(=O)Nc3ccccc32)[nH]1` [SEMAXANIB]: the GI50 turned out to be 37 µM in the series with A-431, 38 µM in the series on HeLa and 27 µM in the series on MSTO-211H.

In the case of `COc1ccc2c(c1)SCc1cnc(Nc3cc(OC)c(OC)c(OC)c3)nc1-2`, the GI50 in the series with A-431 is 1.75 µM; in the series with HeLa, 0.63 µM; in the series on MSTO-211H, 0.92 µM. The compound also had a GI50 at 72 h in series [1] of 3.71 µM.

Turning to `COc1cc(Nc2ncc3c(n2)-c2ccc(Cl)cc2SC3)cc(OC)c1OC`, the values for the GI50 in the series on A-431, in the series on HeLa and in the series with MSTO-211H were 4.27 µM, 3.46 µM and 3.4 µM, respectively. This compound showed a GI50 at 72 h in series [1] of 2.54 µM.

In the case of `COc1cccc(Nc2ncc3c(n2)-c2ccc(Cl)cc2SC3)c1`, the GI50 in the series on A-431 is 16.8 µM; with HeLa, over 20 µM; with MSTO-211H, 6.83 µM. The compound also came in with a GI50 at 72 h in series [1] of 14.2 µM.

Turning to `Clc1cccc(Nc2ncc3c(n2)-c2ccc(Cl)cc2SC3)c1`, the GI50 with A-431 was over 20 µM; in the series with HeLa, over 20 µM; with MSTO-211H it was 7.78 µM. This compound registered a GI50 at 72 h in series [1] of 16.5 µM.

Take `COc1ccc(Nc2ncc3c(n2)-c2ccc(Cl)cc2SC3)cc1OC`: the figures for the GI50 with A-431, in the series with HeLa and in the series on MSTO-211H were 2.23 µM, 3.42 µM and 4.4 µM, respectively. The same compound had a GI50 at 72 h in [1] of 2.53 µM.

As for `COc1ccc2c(c1)SCc1cnc(Nc3ccc(OC)c(OC)c3)nc1-2`, the GI50 in the series with A-431 was 6.06 µM; in the series with HeLa, 18.8 µM; in the series on MSTO-211H it was over 20 µM. In series [1], the GI50 at 72 h was 10.8 µM.

On to `FC(F)(F)c1cccc(Nc2ncc3c(n2)-c2ccc(Cl)cc2SC3)c1`, for which the GI50 was 10 µM with A-431, over 20 µM in the series with HeLa and 3.18 µM with MSTO-211H. Also, in series [1], the GI50 at 72 h is 10.5 µM.

As for `Fc1cccc(Nc2ncc3c(n2)-c2ccc(Cl)cc2SC3)c1`, the GI50 in the series on A-431 is 18.2 µM; in the series on HeLa it was 20 µM; in the series on MSTO-211H, over 20 µM. The compound further had a GI50 at 72 h in series [1] of 18.2 µM.

Turning to `FC(F)(F)c1cccc(Nc2ncc3c(n2)-c2ccccc2SC3)c1`, the GI50 was 13.5 µM in the series with A-431, over 20 µM with HeLa and 11.8 µM with MSTO-211H. The same compound displayed a GI50 at 72 h in series [1] of 5.02 µM.

For the compound `COc1cc(Nc2ncc3c(n2)-c2ccccc2SC3)cc(OC)c1OC`, the results for the GI50 in the series on A-431, in the series on HeLa and in the series on MSTO-211H were 1.92 µM, 1.26 µM and 1.08 µM, respectively. Also, the GI50 at 72 h in series [1] stood at 1.99 µM.

As to `Fc1cccc(Nc2ncc3c(n2)-c2ccccc2SC3)c1`, the values for the GI50 with A-431, with HeLa and in the series on MSTO-211H were 9.76 µM, 14 µM and 2.06 µM, respectively. The compound also returned a GI50 at 72 h in [1] of 4.51 µM.

For `COc1cccc(Nc2ncc3c(n2)-c2ccc(OC)cc2SC3)c1`, the GI50 was 2.1 µM with A-431, 2.8 µM with HeLa and 2.57 µM with MSTO-211H. Besides, in [1], the 50% growth inhibitory concentration (GI50) at 72 h was found to be 2.49 µM.

For `Brc1cccc(Nc2ncc3c(n2)-c2ccccc2SC3)c1`, the GI50 was 10.6 µM with A-431, over 20 µM in the series with HeLa and 7.67 µM in the series with MSTO-211H. The compound further came in with a GI50 at 72 h in series [1] of 7 µM.

With `COc1ccc2c(c1)SCc1cnc(Nc3cccc(C(F)(F)F)c3)nc1-2`, the GI50 was found to be 6.24 µM with A-431, 6.02 µM in the series with HeLa and 9.04 µM in the series on MSTO-211H. For the same compound, in series [1], growth was halved (GI50 at 72 h) at 4.55 µM.

On to `COc1ccc2c(c1)SCc1cnc(Nc3cccc(Cl)c3)nc1-2`, for which the GI50 with A-431 amounted to 8.25 µM; with HeLa, 11.9 µM; in the series with MSTO-211H, 5.6 µM. The compound further came in with a GI50 at 72 h in series [1] of 11.2 µM.

Consider `COc1cccc(Nc2ncc3c(n2)-c2ccccc2SC3)c1`, for which the GI50 came to 9.43 µM with A-431, 6.03 µM with HeLa and 0.8 µM in the series on MSTO-211H. This compound gave a GI50 at 72 h in series [1] of 0.8 µM.

Consider `COc1ccc(Nc2ncc3c(n2)-c2ccccc2SC3)cc1OC`, for which the inhibition in [2] is 53%; in series [3], 39.9%; in series [4] it was 6.5%; in series [5] it was 88.6%; in [6], 6.1%; in [7], 47.4%. Moreover, the GI50 was 2.32 µM with A-431, 1.5 µM in the series on HeLa and 1.63 µM in the series with MSTO-211H. Besides, in series [1], it took 1.5 µM to inhibit growth by half (GI50 at 72 h). The IC50 in series [8] is 0.11 µM.

`Clc1ccc2c(c1)SCc1cnc(Nc3cccc(Br)c3)nc1-2`: the GI50 was 17 µM in the series on A-431, over 20 µM in the series with HeLa and 8.5 µM in the series with MSTO-211H. The GI50 at 72 h in [1] was 7.11 µM.

Regarding `COc1ccc2c(c1)SCc1cnc(Nc3cccc(Br)c3)nc1-2`, the GI50 was determined as 4.77 µM in the series on A-431, 2.93 µM in the series with HeLa and 2.2 µM in the series on MSTO-211H. For the same compound, the GI50 at 72 h in [1] turned out to be 1.89 µM.
